What was measured:
cathepsin B = target: T1, cathepsin B (Bos taurus, UniProt P07688); assay: Cathepsin B inhibition activity in in-vitro system; type: biochemical; conditions: cathepsin B (Sigma), benzoyl-(phenylalanyl-alginyl)-4-methyl-coumarinamide substrate, pH 6.0, 30° C. for 20 minutes; read-out: 50% inhibition concentration IC50
T1 construct: purchased Sigma Co
Method: In this experiment, a 100-mM sodium phosphate buffer solution (pH=6.0; containing 1.33-mM EDTA Na2) was used as the buffer solutions for solution preparation.
A solution mixture consisting of the following components was prepared.
The above buffer solution; 850 μl
A 20-μM solution obtained by dissolving the compound of the present invention in the above buffer solution; 50 μl
A solution obtained by dissolving cathepsin B (available from Sigma Co.) in the above buffer solution to have a concentration of 0.5 mg/ml; 50 μl
50 μl of a 200-μM solution obtained by dissolving benzoyl-(phenylalanyl-alginyl)-4-methyl-coumarinamide in the above buffer solution were added to the above solution mixture, and the resultant solution was incubated at 30° C. for 20 minutes.
After the incubation, the reaction solution mixture was cooled in an ice bath to stop the reaction. After 20 minutes elapsed, the fluorescence intensity (b1) at an excitation wavelength of 370 nm and an emission wavelength of 440 nm was measured. At the same time, an experiment was performed using the above buffer solution in place of the solution of cathepsin B in the above system, and fluorescence intensity (b2) was measured following the same procedures as described above. In addition, an experiment was performed using the above buffer solution in place of the buffer solution of the compound of the present invention, and fluorescence intensity (b3) was measured following the same procedures as described above.
An inhibition ratio was calculated in accordance with the following equation: [formula] and a concentration (IC50) required for 50% inhibition was calculated by using a semilogarithmical graph.

[1] = target: T2, Purified calpain (CANP) sampled from a rat brain (Rattus norvegicus, UniProt Q07009); assay: CANP inhibition activity in in vitro system; type: biochemical; conditions: N,N-dimethylcasein substrate, 30° C. for 20 minutes, pH 7.4, read-out: 50% inhibition concentration IC50
T2 construct: sampled from a rat brain; from tissue; host or cells: rat brain
T2 sequence (Q07009 1-700): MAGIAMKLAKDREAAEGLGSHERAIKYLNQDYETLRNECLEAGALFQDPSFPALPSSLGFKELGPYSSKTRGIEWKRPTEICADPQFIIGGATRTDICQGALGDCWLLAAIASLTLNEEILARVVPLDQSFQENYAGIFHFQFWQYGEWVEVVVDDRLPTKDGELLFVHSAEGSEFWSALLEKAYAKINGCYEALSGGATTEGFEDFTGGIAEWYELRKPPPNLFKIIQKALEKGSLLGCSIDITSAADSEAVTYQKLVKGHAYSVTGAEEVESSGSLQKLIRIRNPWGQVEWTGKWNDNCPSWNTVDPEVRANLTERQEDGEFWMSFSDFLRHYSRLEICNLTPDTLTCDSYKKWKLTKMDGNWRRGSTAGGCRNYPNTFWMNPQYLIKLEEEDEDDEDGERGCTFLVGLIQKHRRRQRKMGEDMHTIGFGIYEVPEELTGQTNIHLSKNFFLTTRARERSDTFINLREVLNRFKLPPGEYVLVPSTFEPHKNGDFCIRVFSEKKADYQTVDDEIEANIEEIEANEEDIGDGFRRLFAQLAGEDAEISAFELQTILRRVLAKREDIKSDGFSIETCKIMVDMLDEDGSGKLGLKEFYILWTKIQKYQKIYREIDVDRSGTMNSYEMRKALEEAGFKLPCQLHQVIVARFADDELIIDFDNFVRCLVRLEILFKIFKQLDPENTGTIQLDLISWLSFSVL
T2 sequence (Q64537 1-270 partner): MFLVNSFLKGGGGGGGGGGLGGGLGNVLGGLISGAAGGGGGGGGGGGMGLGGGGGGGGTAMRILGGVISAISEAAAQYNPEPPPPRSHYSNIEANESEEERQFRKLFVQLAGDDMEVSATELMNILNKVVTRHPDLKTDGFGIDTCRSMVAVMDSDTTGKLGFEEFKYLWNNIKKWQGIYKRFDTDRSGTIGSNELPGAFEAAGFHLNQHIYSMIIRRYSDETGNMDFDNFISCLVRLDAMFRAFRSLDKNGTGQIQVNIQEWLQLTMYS
Method: A solution mixture consisting of the following com-ponents was prepared.
A 167-mM Tris hydrochloric acid buffer solution (pH=7.4) (containing 15-mM mercaptoethanol); 40 μl
A solution obtained by dissolving the compound [I] of the present invention in the same Tris hydrochloric acid buffer solution as described above; 40 μl
Purified calpain [obtained by a method described in J. Biol. Chem., 239, 149 (1964)] sampled from a rat brain and dissolved in a 50-mM sodium acetic acid buffer solution (pH=6.0; containing 1-mM EDTA and 5-mM mercaptoethanol) 11 units/ml; 200 μl
An N,N-dimethylcasein solution (pH=7.0)
40 μl of a 167-mM Tris hydrochloric acid buffer solution (pH=7.4) containing 50-mM CaCl2 were added to the above solution mixture, and the resultant solution was incubated at 30° C. for 20 minutes. After the incubation, 320 μl of 10% (W/V) trichloroacetic acid were added to stop the reaction, and the resultant solution was left to stand in an ice bath for one hour. Thereafter, the solution was subjected to centrifugal separation (16,100×g, five minutes), and 600 μl of the supernatant were sampled to measure absorbance (a1) at 280 nm.
In another step, absorbance (a2) was obtained by performing an experiment and measurement following the same procedures as described above except that a 167-mM Tris hydrochloric acid buffer solution (pH=7.4; containing 15-mM mercaptoethanol) was used in place of the 167-mM Tris hydrochloric acid buffer solution containing the compound of the present invention. In addition, absorbance (a3) was obtained by performing an experiment and measurement following the same procedures as described above except that a 167-mM Tris hydrochloric acid buffer solution (pH=7.4; containing 1-mM EDTA) was used in place of the 167-mM tris buffer solution (pH=7.4) containing 50-mM CaCl2.
An inhibition ratio was calculated from the above absorbance values (a1), (a2), and (a3) in accordance with the following equation: [formula]
In addition, a concentration (IC50) required for 50% inhibition was calculated by using a semilogarithmical graph.

IC50 (cathepsin B) [nM]	IC50 [1] [nM]	SMILES
3		CCOC(=O)[C@H]1OS(=O)(=O)O[C@@H]1C(=O)N[C@@H](CC(C)C)C(=O)NCc1ccccc1 [Example 16, Ethyl (4S,5S)-5-[(S)-1-benzylcarbamoyl-3-methylbutylcarbamoyl]-1,3,2-dioxathiolane-4-carboxylate-2,2-dioxide]
9	6000	CC(C)CCNC(=O)[C@H](CC(C)C)NC(=O)[C@H]1OS(=O)(=O)O[C@@H]1C(=O)OCc1ccccc1 [Example 11, Benzyl (4S,5S)-5-[(S)-3-methyl-1-(3-methylbutylcarbamoyl)butylcarbamoyl]-1,3,2-dioxathiolane-4-carboxylate-2,2-dioxide]
0.7	300	CC(C)CCNC(=O)[C@H](CC(C)C)NC(=O)[C@H]1OS(=O)(=O)O[C@@H]1C(=O)O [Example 12, (4S,5S)-5[(S)-3-methyl-1-(3-methylbutylcarbamoyl)butylcarbamoyl]-1,3,2-dioxathiolane-4-carboxy-2,2-dioxide]
25	15000	CCOC(=O)[C@H]1OS(=O)(=O)O[C@@H]1C(=O)N[C@@H](CC(C)C)C(=O)NCCC(C)C [Example 4, Ethyl (4S,5S)-5-[(S)-3-methyl-1-(3-methylbutylcarbamoyl)butylcarbamoyl]-1,3,2-dioxathiolane-4-carboxylate-2,2-dioxide]
15		CCCCN(CCCC)C(=O)[C@H](CC(C)C)NC(=O)[C@H]1OS(=O)(=O)O[C@@H]1C(=O)OCC [Example 14]
35	7000	CC(C)CC(NC(=O)C1OC1C(=O)O)C(=O)NCCCCNC(=N)N (stereo not shown) [Example E-64, E-64, reference compound]
